Measurements as given in ChEMBL document CHEMBL2407006, “Selective cytotoxic effects on human breast carcinoma of new methoxylated flavonoids from Euryops arabicus grown in Saudi Arabia” (Eur J Med Chem, 2013).
Calls of active or inactive are those of the source. The calls are words filed in the database; no cut-off is given here.

Key:
MCF7 [1] = assay: Cell cycle arrest in human MCF7 cells assessed as reduction in S-phase accumulation at IC50 after 24 hrs by FACs analysis (reference value: 34.1+/-1.1 %); format: functional; set-up: scale not given: the % may be the effect or the level left
HepG2 = assay: Antiproliferative activity against human HepG2 cells after 48 hrs by MTT assay; format: functional, cell-based; conditions: HepG2, 48 h
MCF7 [2] = assay: Cell cycle arrest in human MCF7 cells assessed as reduction in G2/M-phase accumulation at IC50 after 24 hrs by FACs analysis relative to untreated control; format: functional, cell-based
[3] = Antioxidant activity assessed as ABTS free radical scavenging activity by spectrophotometry; format: functional; set-up: concentration or dose not given beside the values
MCF7 [4] = assay: Antiproliferative activity against human MCF7 cells after 48 hrs by MTT assay; format: functional, cell-based; conditions: MCF7, 48 h
PBL = assay: Immunostimulant activity in PHA-stimulated human PBL assessed as lymphocyte transformation at 2 mM after 72 hrs by Giemsa staining method; format: functional
WI-38 = assay: Antiproliferative activity against human WI38 cells after 48 hrs by MTT assay; format: functional, cell-based; conditions: WI-38, 48 h
MCF7 [5] = assay: Cell cycle arrest in human MCF7 cells assessed as increase in G0/G1-phase accumulation at IC50 after 24 hrs by FACs analysis (reference value: 55.6+/-0.6 %); format: functional
Vero = assay: Antiproliferative activity against african green monkey Vero cells after 48 hrs by MTT assay; format: functional, cell-based; conditions: Chlorocebus sabaeus
MCF7 [6] = assay: Cell cycle arrest in human MCF7 cells assessed as increase in pre-G apoptotic fraction at IC50 after 24 hrs by FACs analysis relative to untreated control; format: functional, cell-based
MCF7 [7] = assay: Cell cycle arrest in human MCF7 cells assessed as increase in G0/G1-phase accumulation at IC50 after 24 hrs by FACs analysis; format: functional, cell-based
MCF7 [8] = assay: Cell cycle arrest in human MCF7 cells assessed as reduction in S-phase accumulation at IC50 after 24 hrs by FACs analysis; format: functional, cell-based

Row | Compound | Activity (MCF7 [1]) | IC50 (HepG2) | Activity (MCF7 [2]) | Activity [3] | IC50 (MCF7 [4]) | Activity (PBL) | IC50 (WI-38) | Activity (MCF7 [5]) | IC50 (Vero) | Activity (MCF7 [6]) | Activity (MCF7 [7]) | Activity (MCF7 [8])
1 | COc1ccc(-c2cc(=O)c3cc(OC)c(O)c(OC)c3o2)cc1OC | 15.6% | 20 µM | Active | 52.7% | 15 µM | 55% | 115 µM | 73.4% | 95 µM |  |  | 
2 | COc1ccc(-c2oc3c(OC)c(OC)c(OC)c(O)c3c(=O)c2OC)cc1 [5-HYDROXYAURANETIN] |  | 35 µM |  | 71.1% | 30 µM | 25% | 80 µM |  | 90 µM |  |  | 
3 | O=c1[nH]cc(F)c(=O)[nH]1 [FLUOROURACIL] |  | 10 µM |  |  |  |  | 10 µM |  | 8 µM | Active | Active | Active
4 | COc1cc(-c2cc(=O)c3cc(OC)c(OC)c(O)c3o2)cc(O)c1OC |  | 30 µM |  | 56.8% | 25 µM | 35% | 105 µM |  | 85 µM |  |  | 
5 | COc1cc(-c2cc(=O)c3c(O)cc(OC)c(OC)c3o2)cc(OC)c1OC |  | 25 µM |  | 54.2% | 20 µM | 45% | 100 µM |  | 105 µM |  |  | 
6 | COc1ccc(-c2cc(=O)c3c(O)c(OC)c(OC)c(OC)c3o2)cc1 [GARDENIN B] |  | 40 µM |  | 75.4% | 30 µM | 20% | 75 µM |  | 85 µM |  |  | 
7 | COc1ccc(-c2cc(=O)c3c(O)c(OC)c(OC)c(O)c3o2)cc1OC |  | 45 µM |  | 78.3% | 35 µM | 15% | 95 µM |  | 100 µM |  |  | 
8 | O=C1O[C@H]([C@@H](O)CO)C(O)=C1O |  |  |  | 80% |  |  |  |  |  |  |  | 
9 | C=C1C[C@]23CC[C@H]4C(CO)(CO)C(=O)CC[C@]4(C)[C@H]2CC[C@@H]1C3 |  | 50 µM |  | 34.3% | 40 µM | 10% | 90 µM |  | 90 µM |  |  | 
10 | COc1cc(O)c2c(=O)cc(-c3ccc(OC)c(OC)c3)oc2c1 | 13% | 15 µM | Active | 45.8% | 10 µM | 65% | 105 µM | 71.3% | 125 µM | Active |  | 
